From patent US8258293B2, “Tetrahydroquinoline derivatives” (MSD OSS B.V., priority 2001, dated 2012)

Molecular target: T1, human FSH receptor (Homo sapiens, UniProt P23945)
T1 construct: expressed in transfected cells; host or cells: Chinese Hamster Ovary (CHO) cells
T1 sequence (P23945 18-695): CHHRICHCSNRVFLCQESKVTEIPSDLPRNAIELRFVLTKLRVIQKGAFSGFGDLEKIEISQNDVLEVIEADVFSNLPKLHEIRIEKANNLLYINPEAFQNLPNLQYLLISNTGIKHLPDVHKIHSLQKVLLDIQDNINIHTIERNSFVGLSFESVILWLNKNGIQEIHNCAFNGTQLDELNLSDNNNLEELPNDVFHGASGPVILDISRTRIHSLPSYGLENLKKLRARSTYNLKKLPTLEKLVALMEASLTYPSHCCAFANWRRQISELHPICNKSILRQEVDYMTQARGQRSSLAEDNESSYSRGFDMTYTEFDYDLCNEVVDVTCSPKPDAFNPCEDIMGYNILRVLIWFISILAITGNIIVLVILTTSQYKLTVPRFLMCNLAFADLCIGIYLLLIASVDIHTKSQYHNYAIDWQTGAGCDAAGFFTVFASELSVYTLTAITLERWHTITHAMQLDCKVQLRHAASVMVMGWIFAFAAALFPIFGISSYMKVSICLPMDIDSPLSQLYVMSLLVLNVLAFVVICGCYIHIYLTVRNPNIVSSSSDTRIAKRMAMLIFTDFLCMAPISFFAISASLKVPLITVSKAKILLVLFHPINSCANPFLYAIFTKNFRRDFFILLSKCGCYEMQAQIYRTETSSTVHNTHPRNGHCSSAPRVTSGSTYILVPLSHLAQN
Assay: CHO-FSH in vitro bio activity (CRE-luciferase reporter)
Type: cell-based
Settings: CHO cells stably transfected with human FSH receptor and CRE/luciferase reporter; half-maximal (50%) stimulation
Description: FSH activity of compounds were tested in Chinese Hamster Ovary (CHO) cells stably transfected with the human FSH receptor and cotransfected with a cAMP responsive element (CRE)/promotor directing the expression of a firefly luciferase reporter gene. Binding of ligand to the Gs-coupled FSH receptor will result in an increase of cAMP, which in turn will induce an increased transactivation of the luciferase reporter construct. The luciferase signal was quantified using a luminescence counter. For test compounds, EC50 values (concentration of test compound causing half-maximal (50%) stimulation) were calculated. For that purpose the software program GraphPad PRISM, version 3.0 (GraphPad software Inc., San Diego) was used.

SMILES | EC50 [nM]
CCCc1ccc(C(=O)Nc2ccc3c(c2)C(C)(c2ccccc2)CC(C)(C)N3C(C)=O)cc1 (stereo not shown) [Example 10, 1-Acetyl-4-phenyl-6-(4-n-propylbenzoyl)amino-1,2,3,4-tetrahydro-2,2,4-trimethylquinoline] | < 100
CC(=O)N1c2ccc(NC(=O)c3cccc(C)c3-c3ccccc3)cc2C(C)(c2ccccc2)CC1(C)C (stereo not shown) [Example 16, 1-Acetyl-4-phenyl-6-(2-phenyl-3-methylbenzoyl)amino-1,2,3,4-tetrahydro-2,2,4-trimethylquinoline] | < 100
CC(=O)N1c2ccc(NC(=O)c3ccccc3OS(C)(=O)=O)cc2C(C)(c2ccccc2)CC1(C)C (stereo not shown) [Example 58, 1-Acetyl-6-(2-methylsulfonyloxybenzoyl)amino-4-phenyl-1,2,3,4-tetrahydro-2,2,4-trimethylquinoline] | < 100
CC(=O)N1c2ccc(NC(=O)c3ccc(-c4ccc(Cl)cc4)cc3)cc2C(C)(c2ccccc2)CC1(C)C (stereo not shown) [Example 13, 1-Acetyl-6-(4-[4-chlorophenyl]benzoyl)amino-4-phenyl-1,2,3,4-tetrahydro-2,2,4-trimethylquinoline] | < 100
COc1ccc(COC(=O)c2ccc3c(c2)C(C)(c2ccccc2)CC(C)(C)N3C(C)=O)cc1 (stereo not shown) [Example 36, 1-Acetyl-6-(4-methoxybenzyloxy)carbonyl-4-phenyl-1,2,3,4-tetrahydro-2,2,4-trimethylquinoline] | < 100
CNc1ccc(Br)cc1C(=O)Nc1ccc2c(c1)C(C)(c1ccccc1)CC(C)(C)N2C(C)=O (stereo not shown) [Example 51, 1-Acetyl-6-(5-bromo-2-methylaminobenzoyl)amino-4-phenyl-1,2,3,4-tetrahydro-2,2,4-trimethylquinoline] | < 100
COc1ccc(Br)c(OC)c1C(=O)Nc1ccc2c(c1)C(C)(c1ccccc1)CC(C)(C)N2C(C)=O (stereo not shown) [Example 11, 1-Acetyl-6-(3-bromo-2,6-dimethoxybenzoyl)amino-4-phenyl-1,2,3,4-tetrahydro-2,2,4-trimethylquinoline] | < 100
CC(=O)N1c2ccc(NC(=O)c3ccc(C(F)(F)F)cc3)cc2C(C)(c2ccccc2)CC1(C)C (stereo not shown) [Example 8, 1-Acetyl-4-phenyl-1,2,3,4-tetrahydro-6-(4-[trifluoromethyl]benzoyl)amino-2,2,4-trimethylquinoline] | < 100
CC(=O)N1c2ccc(NC(=O)c3ccccc3OC(=O)c3cc(C)on3)cc2C(C)(c2ccccc2)CC1(C)C (stereo not shown) [Example 61, 1-Acetyl-6-(2-[5-methylisoxazole-3-carbonyl]oxybenzoyl)amino-4-phenyl-1,2,3,4-tetrahydro-2,2,4-trimethylquinoline] | < 100
COc1c(Cl)cc(Cl)c(OC)c1C(=O)Nc1ccc2c(c1)C(C)(c1ccccc1)CC(C)(C)N2C(C)=O (stereo not shown) [Example 53, 1-Acetyl-6-(3,5-dichloro-2,6-dimethoxybenzoyl)amino-4-phenyl-1,2,3,4-tetrahydro-2,2,4-trimethylquinoline] | < 100
COc1ccc(-c2ccccc2)c(C(=O)Nc2ccc3c(c2)C(C)(c2ccccc2)CC(C)(C)N3C(C)=O)c1 (stereo not shown) [Example 15, 1-Acetyl-4-phenyl-6-(2-phenyl-5-methoxybenzoyl)amino-1,2,3,4-tetrahydro-2,2,4-trimethylquinoline] | < 100
CC(=O)N1c2ccc(NC(=O)c3cc(Br)cc(Br)c3)cc2C(C)(c2ccccc2)CC1(C)C (stereo not shown) [Example 50, 1-Acetyl-6-(3,5-dibromobenzoyl)amino-4-phenyl-1,2,3,4-tetrahydro-2,2,4-trimethylquinoline] | < 100
CC(=O)N1c2ccc(NC(=O)c3ccc(-c4ccccc4)cc3)cc2C(C)(c2ccccc2)CC1(C)C (stereo not shown) [Example 12, 1-Acetyl-4-phenyl-6-(4-phenylbenzoyl)amino-1,2,3,4-tetrahydro-2,2,4-trimethylquinoline] | < 100
CC(=O)N1c2ccc(NC(=O)OC(C)(C)C)cc2C(C)(c2ccccc2)CC1(C)C (stereo not shown) [Example 1, 1-Acetyl-6-(tert-butoxycarbonyl)amino-4-phenyl-1,2,3,4-tetrahydro-2,2,4-trimethylquinoline] | < 100
CC(=O)N1c2ccc(NC(=O)c3ccccc3Nc3ccccc3)cc2C(C)(c2ccccc2)CC1(C)C (stereo not shown) [Example 64, 1-Acetyl-6-(2-phenylaminobenzoyl)amino-4-phenyl-1,2,3,4-tetrahydro-2,2,4-trimethylquinoline] | < 100
CC(=O)N1c2ccc(NC(=O)c3ccccc3OC(=O)N3CCOCC3)cc2C(C)(c2ccccc2)CC1(C)C (stereo not shown) [Example 63, 1-Acetyl-6-(2-[morpholino-4-carbonyl]oxybenzoyl)amino-4-phenyl-1,2,3,4-tetrahydro-2,2,4-trimethylquinoline] | < 100
CC(=O)N1c2ccc(NC(=O)c3ccc([N+](=O)[O-])cc3)cc2C(C)(c2ccccc2)CC1(C)C (stereo not shown) [Example 9, 1-Acetyl-6-(4-nitrobenzoyl)amino-4-phenyl-1,2,3,4-tetrahydro-2,2,4-trimethylquinoline] | < 100
CC(=O)N1c2ccc(NC(=O)c3ccco3)cc2C(C)(c2ccccc2)CC1(C)C (stereo not shown) [Example 22, 1-Acetyl-6-(2-furoyl)amino-4-phenyl-1,2,3,4-tetrahydro-2,2,4-trimethylquinoline] | < 100
CC(=O)N1c2ccc(NC(=O)CN3CCN(c4ccccc4)CC3)cc2C(C)(c2ccccc2)CC1(C)C (stereo not shown) [Example 30, 1-Acetyl-6-([4-{1-phenyl}-piperazinyl]methylcarbonyl)amino-4-phenyl-1,2,3,4-tetrahydro-2,2,4-trimethylquinoline] | < 100
CC(=O)N1c2cc(C)c(NC(=O)c3ccc(-c4ccccc4)cc3)cc2C(C)(c2ccccc2)CC1(C)C (stereo not shown) [Example 45, 1-Acetyl-6-(4-phenylbenzoyl)amino-4-phenyl-1,2,3,4-tetrahydro-2,2,4,7-tetramethylquinoline] | < 100
COc1cc(NC(=O)c2ccc(-c3ccccc3)cc2)cc2c1N(C(C)=O)C(C)(C)CC2(C)c1ccccc1 (stereo not shown) [Example 46, 1-Acetyl-6-(4-phenylbenzoyl)amino-8-methoxy-4-phenyl-1,2,3,4-tetrahydro-2,2,4-trimethylquinoline] | < 100
CC(=O)N1c2ccc(NC(=O)c3ccccc3)cc2C(C)(c2ccccc2)CC1(C)C (stereo not shown) [Example 7, 1-Acetyl-6-benzoylamino-4-phenyl-1,2,3,4-tetrahydro-2,2,4-trimethylquinoline] | < 100
CC(=O)N1c2ccc(OC(=O)c3ccc(-c4ccccc4)cc3)cc2C(C)(c2ccccc2)CC1(C)C (stereo not shown) [Example 37, 1-Acetyl-6-(4-phenylbenzoyl)oxy-4-phenyl-1,2,3,4-tetrahydro-2,2,4-trimethylquinoline] | < 100
CC(=O)N1c2ccc(NC(=O)CCC34CC5CC(CC(C5)C3)C4)cc2C(C)(c2ccccc2)CC1(C)C (stereo not shown) [Example 24, 1-Acetyl-6-(3-[adamantan-1-yl]propionyl)amino-4-phenyl-1,2,3,4-tetrahydro-2,2,4-trimethylquinoline] | < 100
COc1cc(C(=O)Nc2ccc3c(c2)C(C)(c2ccccc2)CC(C)(C)N3C(C)=O)cc(OC)c1OC (stereo not shown) [Example 52, 1-Acetyl-6-(3,4,5-trimethoxybenzoyl)amino-4-phenyl-1,2,3,4-tetrahydro-2,2,4-trimethylquinoline] | < 100
CC(=O)N1c2ccc(NC(=O)CCc3ccccc3)cc2C(C)(c2ccccc2)CC1(C)C (stereo not shown) [Example 21, 1-Acetyl-4-phenyl-6-(3-phenylpropionyl)amino-1,2,3,4-tetrahydro-2,2,4-trimethylquinoline] | < 100
CC(=O)N1c2ccc(NC(=O)CC(C)C)cc2C(C)(c2ccccc2)CC1(C)C (stereo not shown) [Example 23, 1-Acetyl-6-(isovaleryl)amino-4-phenyl-1,2,3,4-tetrahydro-2,2,4-trimethylquinoline] | < 100
CC(=O)N1c2ccc(NC(=O)c3ccc(Cl)cc3)cc2C(C)(c2ccccc2)CC1(C)C (stereo not shown) [Example 6, 1-Acetyl-6-(4-chlorobenzoyl)amino-4-phenyl-1,2,3,4-tetrahydro-2,2,4-trimethylquinoline] | < 100
